{
  "source": "patent US10092575B2",
  "about": "“Substituted thiophene- and furan-fused azolopyrimidine-5-(6H)-one compounds” (DART NEUROSCIENCE (CAYMAN) LTD., priority 2012, dated 2018)",
  "target": "human PDE1b enzyme (Homo sapiens (Human), UniProt Q01064)",
  "test": "PDE1b inhibitory assay (IMAP TR-FRET)",
  "details": "negative log of half-maximal molar inhibitory concentration; 200 nM FAM-cAMP; reported as ranges",
  "data": [
    {"molecule": "O=c1n(Cc2ccc(Cl)cc2F)c2sc3c(c2c2ncnn12)CCN(Cc1ccccn1)C3", "note": "[Example 130, 6-(4-Chloro-2-fluorobenzyl)-9-(pyridin-2-ylmethyl)-8,9,10,11-tetrahydropyrido[4′,3′:4,5]thieno[3,2-e][1,2,4]triazolo[1,5-c]pyrimidin-5 (6H)-one]", "values": [
      {"measurement": "PDE1b (pEC50)", "value": ">7"}
    ]},
    {"molecule": "Cn1ccnc1CN1CCc2c(sc3c2c2ncnn2c(=O)n3Cc2ccc(Cl)cc2F)C1", "note": "[Example 131]", "values": [
      {"measurement": "PDE1b (pEC50)", "value": ">7"}
    ]},
    {"molecule": "O=c1n(Cc2ccc(Cl)cc2F)c2sc3c(c2c2ncnn12)CCN(Cc1ncccn1)C3", "note": "[Example 132, 6-(4-Chloro-2-fluorobenzyl)-9-(pyrimidin-2-ylmethyl)-8,9,10,11-tetrahydropyrido[4′,3′:4,5]thieno[3,2-e][1,2,4]triazolo[1,5-c]pyrimidin-5 (6H)-one]", "values": [
      {"measurement": "PDE1b (pEC50)", "value": ">7"}
    ]},
    {"molecule": "COc1ccc(Cn2c(=O)n3ncnc3c3c4c(sc32)CN(CC2CCCOC2)CC4)cc1", "note": "(centres unmarked) [Example 134, 6-(4-Methoxybenzyl)-9-((tetrahydro-2H-pyran-3-yl)methyl)-8,9,10,11-tetrahydropyrido[4′,3′:4,5]thieno[3,2-e][1,2,4]triazolo[1,5-c]pyrimidin-5(6H)-one]", "values": [
      {"measurement": "PDE1b (pEC50)", "value": ">7"}
    ]},
    {"molecule": "COc1ccc(Cn2c(=O)n3ncnc3c3c4c(sc32)CN(CC2CCCOC2)CC4(F)F)cc1", "note": "(centres unmarked) [Example 136, 11,11-Difluoro-6-(4-methoxybenzyl)-9-((tetrahydro-2H-pyran-3-yl)methyl)-8,9,10,11-tetrahydropyrido[4′,3′:4,5]thieno[3,2-e][1,2,4]triazolo[1,5-c]pyrimidin-5(6H)-one]", "values": [
      {"measurement": "PDE1b (pEC50)", "value": ">7"}
    ]},
    {"molecule": "COc1ccc(Cn2c(=O)n3ncnc3c3c4c(sc32)CN(Cc2ncccn2)CC4)c(F)c1", "note": "[Example 137, 6-(2-Fluoro-4-methoxybenzyl)-9-(pyrimidin-2-ylmethyl)-8,9,10,11-tetrahydropyrido[4′,3′:4,5]thieno[3,2-e][1,2,4]triazolo[1,5-c]pyrimidin-5 (6H)-one]", "values": [
      {"measurement": "PDE1b (pEC50)", "value": ">7"}
    ]},
    {"molecule": "COc1ccc(Cn2c(=O)n3ncnc3c3c4c(sc32)CN(Cc2nccn2C)CC4)c(F)c1", "note": "[Example 138, 6-(2-Fluoro-4-methoxybenzyl)-9-((1-methyl-1H-imidazol-2-yl)methyl)-8,9,10,11-tetrahydropyrido[4′,3′:4,5]thieno[3,2-e][1,2,4]triazolo[1,5-c]pyrimidin-5(6H)-one]", "values": [
      {"measurement": "PDE1b (pEC50)", "value": ">7"}
    ]},
    {"molecule": "COc1ccc(Cn2c(=O)n3ncnc3c3c4c(sc32)CN(Cc2ccccn2)CC4)c(F)c1", "note": "[Example 139, 6-(2-Fluoro-4-methoxybenzyl)-9-(pyridin-2-ylmethyl)-8,9,10,11-tetrahydropyrido[4′,3′:4,5]thieno[3,2-e][1,2,4]triazolo[1,5-c]pyrimidin-5 (6H)-one]", "values": [
      {"measurement": "PDE1b (pEC50)", "value": ">7"}
    ]},
    {"molecule": "COc1ccc(Cn2c(=O)n3ncnc3c3c4c(sc32)CN(CC2CCOC2)CC4)c(F)c1", "note": "(centres unmarked) [Example 140, 6-(2-Fluoro-4-methoxybenzyl)-9-((tetrahydrofuran-3-yl)methyl)-8,9,10,11-tetrahydropyrido[4′,3′:4,5]thieno[3,2-e][1,2,4]triazolo[1,5-c]pyrimidin-5(6H)-one]", "values": [
      {"measurement": "PDE1b (pEC50)", "value": ">7"}
    ]},
    {"molecule": "COc1ccc(Cn2c(=O)n3ncnc3c3c4c(sc32)CN(CC2CCCOC2)CC4)c(F)c1", "note": "(centres unmarked) [Example 142, 6-(2-Fluoro-4-methoxybenzyl)-9-((tetrahydro-2H-pyran-3-yl)methyl)-8,9,10,11-tetrahydropyrido[4′,3′:4,5]thieno[3,2-e][1,2,4]triazolo[1,5-c]pyrimidin-5(6H)-one]", "values": [
      {"measurement": "PDE1b (pEC50)", "value": ">7"}
    ]},
    {"molecule": "COc1ccc(Cn2c(=O)n3ncnc3c3c4c(sc32)CN(CC2CCOC2)CCC4)cc1", "note": "(centres unmarked) [Example 143, 6-(4-Methoxybenzyl)-9-((tetrahydrofuran-3-yl)methyl)-6,8,9,10,11,12-hexahydro-5H-[1,2,4]triazolo[1″,5″:1%6′]pyrimido[5′,4′:4,5]thieno[2,3-c]azepin-5-one]", "values": [
      {"measurement": "PDE1b (pEC50)", "value": ">7"}
    ]}
  ]
}
